Data from ChEMBL document CHEMBL3856262, “A diastereoselective synthesis of tetrahydro- and dihydro-pyrido[2,3-c]coumarin derivatives via a one-pot three-component Povarov reaction catalyzed by bismuth(III) chloride” (2016).
Converted amounts (≈) assume the structure as drawn.

Legend:
Format in all cases: functional
[1] = system: Pseudomonas aeruginosa; assay: Antimicrobial activity against Pseudomonas aeruginosa MTCC 2453 incubated for 24 hrs by well diffusion assay; settings: MTCC 2453, 24 h
[2] = Antioxidant activity assessed as DPPH radical scavenging activity at 0.5 mM incubated for 40 mins in dark condition
[3] = system: Candida albicans; assay: Antimicrobial activity against Candida albicans MTCC 3017 incubated for 24 hrs by well diffusion assay; settings: MTCC 3017, 24 h
[4] = system: Staphylococcus aureus; assay: Antimicrobial activity against Staphylococcus aureus MLS-16 […] incubated for 24 hrs by well diffusion assay
[5] = system: Micrococcus luteus; assay: Antimicrobial activity against Micrococcus luteus MTCC 2470 incubated for 24 hrs by well diffusion assay; settings: MTCC 2470, 24 h
[6] = system: Escherichia coli; assay: Antimicrobial activity against Escherichia coli MTCC 739 incubated for 24 hrs by well diffusion assay; settings: MTCC 739, 24 h
[7] = Antioxidant activity assessed as DPPH radical scavenging activity at 1 mM incubated for 40 mins in dark condition
[8] = system: Raoultella planticola; assay: Antimicrobial activity against Klebsiella planticola MTCC 530 incubated for 24 hrs by well diffusion assay; settings: MTCC 530, 24 h
[9] = system: Bacillus subtilis; assay: Antimicrobial activity against Bacillus subtilis MTCC 121 incubated for 24 hrs by well diffusion assay; settings: MTCC 121, 24 h
[10] = Antioxidant activity assessed as DPPH radical scavenging activity at 2 mM incubated for 40 mins in dark condition
[11] = system: Staphylococcus aureus; assay: Antimicrobial activity against Staphylococcus aureus MTCC 96 incubated for 24 hrs by well diffusion assay; settings: MTCC 96, 24 h

| SMILES | MIC [1] [µg/mL] | MIC [3] [µg/mL] | MIC [4] [µg/mL] | MIC [5] [µg/mL] | MIC [6] [µg/mL] | MIC [9] [µg/mL] | MIC [11] [µg/mL] | Activity [2] [%] | Activity [7] [%] | MIC [8] [µg/mL] | Activity [10] [%] |
| --- | --- | --- | --- | --- | --- | --- | --- | --- | --- | --- | --- |
| Clc1ccc(COC(Cn2ccnc2)c2ccc(Cl)cc2Cl)c(Cl)c1 (stereo not given) [MICONAZOLE] | – | 9.37 (≈ 22.5 µM) | – | – | – | – | – | – | – | – | – |
| O=c1oc2ccccc2c2c1N[C@H](c1ccc(Cl)cc1)C[C@H]2c1ccc2ccccc2c1 | > 100 | > 100 | > 100 | > 100 | > 100 | > 100 | > 100 | – | – | > 100 | – |
| CCOC(=O)C1=C(C(=O)OCC)[C@@H](c2cc(O)ccc2O)Nc2c1c1ccccc1oc2=O | > 100 | > 100 | > 100 | > 100 | > 100 | > 100 | > 100 | 2.43 | 3.88 | > 100 | 7.42 |
| O=c1oc2ccccc2c2c1N[C@H](c1ccccc1)[C@H]1CCCO[C@@H]21 | > 100 | > 100 | > 100 | > 100 | > 100 | > 100 | > 100 | – | – | > 100 | – |
| O=C(O)c1cn(C2CC2)c2cc(N3CCNCC3)c(F)cc2c1=O [CIPROFLOXACIN] | 0.58 (≈ 1.75 µM) | – | 0.58 (≈ 1.75 µM) | 0.58 (≈ 1.75 µM) | 0.58 (≈ 1.75 µM) | 0.58 (≈ 1.75 µM) | 0.58 (≈ 1.75 µM) | – | – | 0.58 (≈ 1.75 µM) | – |
| Cc1c(C)c2c(c(C)c1O)CC[C@@](C)(CCC[C@H](C)CCC[C@H](C)CCCC(C)C)O2 | – | – | – | – | – | – | – | 47.7 | 81.7 | – | 86.4 |
| COc1cc(OC)cc([C@@H]2C[C@@H](c3ccc4ccccc4c3)c3c(c(=O)oc4ccccc34)N2)c1 | > 100 | > 100 | > 100 | > 100 | > 100 | > 100 | > 100 | – | – | > 100 | – |
| O=c1oc2ccccc2c2c1N[C@H](c1ccc(Cl)cc1)[C@H]1CCCO[C@@H]21 | > 100 | > 100 | > 100 | > 100 | > 100 | > 100 | > 100 | – | – | > 100 | – |
| Cc1cc(C(C)(C)C)c(O)c(C(C)(C)C)c1 | – | – | – | – | – | – | – | 39.8 | 68.5 | – | 78.5 |

The next lines start with results.

| MIC [1] [µg/mL] | MIC [3] [µg/mL] | MIC [4] [µg/mL] | MIC [5] [µg/mL] | MIC [6] [µg/mL] | MIC [9] [µg/mL] | MIC [11] [µg/mL] | SMILES | Activity [2] [%] | Activity [7] [%] | MIC [8] [µg/mL] | Activity [10] [%] |
| --- | --- | --- | --- | --- | --- | --- | --- | --- | --- | --- | --- |
| > 100 | > 100 | > 100 | > 100 | > 100 | > 100 | > 100 | CCOC(=O)C1=C(C(=O)OCC)[C@@H](c2ccc(O)c(Cl)c2)Nc2c1c1ccccc1oc2=O | 4.84 | 5.79 | > 100 | 11 |
| > 100 | > 100 | > 100 | > 100 | > 100 | > 100 | > 100 | CC(C)OC(=O)N1c2c(c(=O)oc3ccccc23)N[C@H](c2ccc(C#N)cc2)N1C(=O)OC(C)C | – | 0.88 | > 100 | 3.14 |
| > 100 | > 100 | > 100 | > 100 | > 100 | > 100 | > 100 | CCOC(=O)C1=C(C(=O)OCC)[C@@H](c2cc(OC)ccc2O)Nc2c1c1ccccc1oc2=O | 9.58 | 20.1 | > 100 | 32.1 |
| > 100 | > 100 | > 100 | > 100 | > 100 | > 100 | > 100 | CC(C)OC(=O)N1c2c(c(=O)oc3ccccc23)N[C@H](c2ccc(C(F)(F)F)cc2)N1C(=O)OC(C)C | – | 1.06 | > 100 | 6.8 |
| > 100 | > 100 | > 100 | > 100 | > 100 | > 100 | > 100 | CC(C)OC(=O)N1c2c(c(=O)oc3ccccc23)N[C@H](c2ccc(O)c(Cl)c2)N1C(=O)OC(C)C | 10.8 | 21 | > 100 | 31.1 |
| > 100 | > 100 | > 100 | > 100 | > 100 | > 100 | > 100 | CCOc1ccc([C@H]2Nc3c(c4ccccc4oc3=O)[C@@H]3OCCC[C@H]23)cc1 | – | – | > 100 | – |
| > 100 | > 100 | > 100 | > 100 | > 100 | > 100 | > 100 | CC(C)OC(=O)N1c2c(c(=O)oc3ccccc23)N[C@H](c2ccc([N+](=O)[O-])cc2)N1C(=O)OC(C)C | 3.27 | 7.06 | > 100 | 14.6 |
| > 100 | > 100 | > 100 | > 100 | > 100 | > 100 | > 100 | O=c1oc2ccccc2c2c1N[C@H](c1ccc([N+](=O)[O-])cc1)[C@H]1CCCO[C@@H]21 | – | – | > 100 | – |
| > 100 | > 100 | > 100 | > 100 | > 100 | > 100 | > 100 | O=c1oc2ccccc2c2c1N[C@H](c1ccc(F)cc1)[C@H]1CCCO[C@@H]21 | – | – | > 100 | – |
| > 100 | > 100 | > 100 | > 100 | > 100 | > 100 | > 100 | Nc1cc2ccccc2oc1=O | – | 2.77 | > 100 | 6.08 |
